Reference: EP4570800A1, “CRYSTAL FORM OF PYRIDINOPYRIMIDINONE COMPOUND, ACID SALT THEREOF, CRYSTAL FORM OF ACID SALT THEREOF, AND USE” (Wuhan Humanwell Innovative Drug Research and Development …, priority 2022, dated 2024)

Columns and labels:
[1] = Dynamic solubility in water, SGF, FaSSIF and FeSSIF; conditions: listed as Crystal form A of compound of formula I; for S: solubility: 37°C, solid feed concentration 10 mg/mL; for pH: pH value of the filtrate
Method: 100 mg of NaCl and 50 mg of Triton X-100 were weighed into a 50 mL volumetric flask, and purified water was added to complete dissolution. 816 µL of 1 M hydrochloric acid was added thereto, and the pH was adjusted to 1.8 with 1 M hydrochloric acid or 1 M NaOH solution. Purified water was added to make up to volume.
340 mg of anhydrous NaH2PO4, 42 mg of NaOH, and 620 mg of NaCl were weighed into a 100 mL volumetric flask. Purified water was added to complete dissolution. The pH was adjusted to 6.5 with 1 M hydrochloric acid or 1 M NaOH solution. Purified water was added to make up to volume. 110 mg of SIF powder was then weighed into a 50 mL volumetric flask, added with the above solution to complete dissolution and make up to volume.
About 90 mL of purified water was added to complete dissolution, and the pH was adjusted to 5.0 with 1 M hydrochloric acid or 1 M NaOH solution. Purified water was added to make up to volume. 560 mg of SIF powder was then weighed into a 50 mL volumetric flask, added with the above solution to complete dissolution and make up to volume.
Rotating mixing was carried out at 37°C at a solid feed concentration of 10 mg/mL (calculated as the compound of formula I). […] After sampling at each time point, the samples were centrifuged (10000 rpm) and filtered (0.45 µm PTFE filter head), and the HPLC concentration and pH value of the filtrate were measured.

[2] = Influence of vacuum drying conditions on crystal form A (XRPD, HPLC purity); assay type: physicochemical
Method: In order to evaluate the influence of the drying conditions on the crystal form A of the compound of formula I, the changes of the sample before and after vacuum drying of the crystal form A of the compound of formula I under the condition of 60°C/80°C for 4 hours were respectively investigated. The XRPD, ^1H NMR, and HPLC purity of the dried sample were tested. […]

[3] = Hygroscopicity by dynamic vapor sorption (DVS); assay type: physicochemical; conditions: 25°C
Method: The dynamic vapor sorption (DVS) curve was collected on DVS IntrInsic from SMS (surface measurement systems). The relative humidity at 25°C was corrected using the deliquescence points of LiCl, Mg(NO3)2, and KCl.
Starting from 0%RH or room humidity, the test collected the mass change percentage of the sample as the humidity changed (0%RH to 95%RH) under constant temperature conditions of 25°C.

[4] = Solid state stability (XRPD and HPLC); assay type: physicochemical; conditions: for HPLC results Purity (area%) / Crystal form: listed as Crystal form A of compound of formula I
Method: The purity test, dynamic solubility test, and stability test in the assay were measured with an Agilent 1260 high-performance liquid chromatograph, and the salt formation molar ratio of ions was tested by ion chromatography, and the analytical conditions are shown in Table 5 and Table 6.
Table 56 Summary of solid state stability evaluation

[5] = Human liver microsome stability test; assay type: in vitro ADME; conditions: human liver microsomes, incubation for 30 min, 37°C
Method: The human liver microsome stability test was performed by incubating the compound and human liver microsomes in vitro. First, the compound to be tested was prepared into a 10 mM stock solution in DMSO solvent, and then the compound was diluted to 0.5 mM with acetonitrile. Human liver microsomes (Corning) were diluted with PBS into a microsome/buffer solution, and the solution was used to dilute 0.5 mM compound into a working solution, in which the concentration of the compound was 1.5 µM, and the concentration of human liver microsomes was 0.75 mg/mL. A deep-well plate was taken, 30 µL of the working solution was added per well, and then 15 µL of pre-heated 6 mM NADPH solution was added thereto to initiate a reaction, and the reaction was incubated at 37°C. At 0, 5, 15, 30, and 45 min of the incubation, 135 µL of acetonitrile was added to the corresponding wells to terminate the reaction. After the reaction was terminated with acetonitrile at the last time point of 45 min, the deep-well plate was vortexed for 10 min (600 rpm/min), and then centrifuged for 15 min. After centrifugation, the supernatant was collected, and added with purified water in a ratio of 1:1 to perform LC-MS/MS detection. A ratio of a peak area of compound to a peak area of internal standard at each time point was obtained, and the peak area ratios of the compound at 5, 15, 30, and 45 min were compared with the peak area ratio at 0 min to calculate the remaining percentage of the compound at each time point. T1/2 was calculated by using GraphPad 5 software.

[6] = test system: ERK phosphorylation level in DLD-1 cells; experiment: Inhibition of ERK phosphorylation level in DLD-1 cells (intracellular western blot); assay type: cell-based; conditions: Homo sapiens
Method: Intracellular western blot quantitative analysis was used to detect the inhibitory level of compounds on ERK phosphorylation in DLD-1 cells.
DLD-1 cells (ATCC, CCL-221) were seeded in a T75 culture flask at 2.5 × 10^6 cells/flask, and cultured in a RPMI 1640 medium containing 10% FBS for 2 days. On day 3, the cells were seeded on a 384-well plate, and cultured overnight at 37°C, 5% CO2. After overnight culture, the plate was added with serially diluted compounds (the final content of DMSO was 0.5%), the negative group was added with DMSO, and incubated in a 37°C, 5% CO2 incubator.
The cells were fixed, washed once with PBS, treated to disrupt membranes, and blocked at room temperature for 1 h. The blocking solution was removed. The plate was added with primary antibody (CST, Cat. No. #4370S), and incubated overnight at 4°C. The plate was washed 3 times with PBST (PBS solution added with 0.05% Tween-20), and soaked for 2 min each time. The plate was added with secondary antibody (LI-COR, Cat. No. 926-32211), and incubated at room temperature in the dark. The plate was washed 3 times with PBST, and soaked for 2 min each time. The plate was centrifuged at 1000 rpm for 1 min, scanned on a two-color infrared laser imaging system (Odyssey® CLX) to read the signal. Relative signal = 800-channel signal values/700-channel signal values. […]
(§1) IC50 values were calculated using Graphpad 5 software.

H358 cells = experiment: Inhibition of 3D cell proliferation (3D CellTiter-Glo); assay type: cell-based; conditions: Homo sapiens, NCI-H358, 168 h; 3D cell proliferation in H358 cells, 7 days culture, 3D CellTiter-Glo
Method: H358 cells were seeded in a T75 culture flask, and cultured in a RPMI 1640 medium containing 10% FBS for 2 days for subsequent experiments in which the cells would be cultured or seeded on a 384-well plate.
On day 1, the cells were seeded on the 384-well plate, with 40 µL of medium added per well and serially diluted compounds or DMSO added per well, and an additional well without seeded cells but with medium was set up as a blank control. After culture at 37°C, 5% CO2 for 7 days, the plate was added with 3D CellTiter-Glo reagent (Promega, Cat. No. G9683) on day 8, shaken at 320 rpm for 20 min, and left at room temperature for 2 h. Luminescence signals were read on a multifunctional microplate reader. Cell viability inhibition rate was calculated as: [formula]
as §1

[7] = test system: NCI-H1975 non-small cell lung cancer; experiment: In vivo efficacy test of NCI-H1975 non-small cell lung cancer (combination with osimertinib); set-up: species or system mice; conditions: 1 mg/kg, QD
Method: NCI-H1975 tumor cells were cultured in an incubator at 37°C and 5% CO2 using medium containing inactivated RPMI 1640 + 10% FBS. After reaching a confluency rate of 80 to 90%, the cells were passaged by subculturing. After one week of adaptive feeding in mice, NCI-H1975 cells in logarithmic phase were inoculated subcutaneously into the right flank of mice at a concentration of 5 × 10^6/100 µL. Tumor growth was regularly monitored until the tumors reached an average volume of 100 to 150 mm^3. […] Tumor size and animal weight were measured and recorded before and during the administration process. The differences in tumor size between the model group and administration group were compared to determine the efficacy.

Cc1nc(N[C@H](C)c2cccc(S(F)(F)(F)(F)F)c2)c2cn(C3(CF)CC3)c(=O)cc2n1
S: solubility ([1]; FaSSIF, 1 hour, 60 min): 210 µg/mL
S: solubility ([1]; FaSSIF, 4 hours, 240 min): 80 µg/mL
S: solubility ([1]; FaSSIF, 24 hours, 1440 min): 50 µg/mL
S: solubility ([1]; FeSSIF, 1 hour, 60 min): 2720 µg/mL
S: solubility ([1]; FeSSIF, 4 hours, 240 min): 2880 µg/mL
S: solubility ([1]; FeSSIF, 24 hours, 1440 min): 2740 µg/mL
S: solubility ([1]; H2O, 1 hour, 60 min): 140 µg/mL
S: solubility ([1]; H2O, 4 hours, 240 min): 110 µg/mL
S: solubility ([1]; H2O, 24 hours, 1440 min): 110 µg/mL
S: solubility ([1]; SGF, 1 hour, 60 min): 6840 µg/mL
S: solubility ([1]; SGF, 4 hours, 240 min): 7670 µg/mL
S: solubility ([1]; SGF, 24 hours, 1440 min): 7760 µg/mL
pH ([1]; FaSSIF, 1 hour): 6.3
pH ([1]; FaSSIF, 4 hours): 6.3
pH ([1]; FaSSIF, 24 hours): 6.4
pH ([1]; FeSSIF, 1 hour): 5.1
pH ([1]; FeSSIF, 4 hours): 5.1
pH ([1]; FeSSIF, 24 hours): 5.1
pH ([1]; H2O, 1 hour): 5.4
pH ([1]; H2O, 4 hours): 6.0
pH ([1]; H2O, 24 hours): 5.8
pH ([1]; SGF, 1 hour): 3.2
pH ([1]; SGF, 4 hours): 3.3
pH ([1]; SGF, 24 hours): 3.2
Area (%) of main peak (relative retention time 1.00) After vacuum drying at 60°C ([2]; vacuum drying at 60°C for 4 hours, onset 97.07): 97.11%
change in HPLC purity before and after drying ([2]; vacuum drying at 60°C/80°C for 4 hours): no significant change in purity
crystal form after vacuum drying (XRPD) ([2]; vacuum drying at 60°C/80°C for 4 hours, then 19°C/27% RH for 10-15 min): still the crystal form A of the compound of formula I
Area (%) of main peak (relative retention time 1.00) After vacuum drying at 80°C ([2]; vacuum drying at 80°C for 4 hours, onset 97.07): 97.14%
DVS behaviour when higher than 10% RH ([3]; higher than 10% RH): absorb more moisture and gain more weight with the increase of humidity
DVS behaviour when lower than 10% RH ([3]; lower than 10% RH): rapidly dehydrate
HPLC results Purity (area%) ([4]; 25°C/60%RH/open, 1 week): 97.13 area%
HPLC results Purity (area%) ([4]; 40°C/75%RH/open, 1 week): 97.14 area%
HPLC results Purity (area%) ([4]; Onset): 97.06 area%
Crystal form ([4]; XRPD after 25°C/60%RH/open, 1 week): Crystal form A of compound of formula I
Crystal form ([4]; XRPD after 40°C/75%RH/open, 1 week): Crystal form A of compound of formula I
solid state stability ([4]; open, one week at 25°C/60% RH and 40°C/75% RH): good stability

Cc1nc(N[C@H](C)c2cccc(C(F)(F)F)c2C)c2cn(C3(CF)CC3)c(=O)cc2n1 [Control compound 1, reference compound]
Remaining percentage (%) of compound after incubation for 30 min [5]: 70.2%
IC50 [6]: 72 nM
IC50 (H358 cells): 13 nM

C=CC(=O)Nc1cc(Nc2nccc(-c3cn(C)c4ccccc34)n2)c(OC)cc1N(C)CCN(C)C [Osimertinib]
Average tumor weight at the end of the treatment [7]: 3.2 g
